No end group written: not given here.
What was measured:
Assay in all cases: 26RFa-induced calcium mobilization, receptor mutants
Format in all cases: cell-based
[1] = molecular target: T1, QRFPR mutants (Homo sapiens, UniProt Q96P65); conditions: HEK293, QRFPR Δ1-18; HEK293, Fluo-4; mean ± S.E.M., n ≥ 3
T1 construct: expressed in transfected cells; host or cells: HEK293, transient transfection by electroporation
Procedure: (§1) The gene encoding the WT QRFPR, PrPRR, KISS1R, NPFF1R, or NPFF2R was subcloned into the pcDNA3.0 vector with the addition of an N-terminal HA tag. All of the mutations used for functional studies were generated by QuickChange PCR and verified by DNA sequencing.
(§2) HEK293 cells were obtained from ATCC (Manassas, VA, USA) and cultured in DMEM supplemented with 10% (v/v) FBS, 100 mg/L penicillin, and 100 mg/L streptomycin in 5% CO2 at 37 °C. For transient transfection, ~2.5 × 10^6 cells were mixed with 2 µg plasmids in 200 µL transfection buffer, and electroporation was carried out with a Scientz-2C electroporation apparatus (Scientz Biotech, Ningbo, China). The experiments were carried out 24 h after transfection.
(§3) For QRFPR, PrRPR, and KISS1R, HEK293 cells transfected with WT receptor or its mutants were seeded at a density of 4 × 10^4 per well into 96-well culture plates and incubated for 24 h at 37 °C in 5% CO2. For NPFF1R and NPFF2R, plasmids were transfected into HEK293 cells stably expressing Gα16. On the next day, cells were incubated with 2 μmol/L Fluo-4 AM in HBSS supplemented with 5.6 mmol/L D-glucose and 250 μmol/L sulfinpyrazone at 37 °C for 45 min. After washing, cells were added with 50 μL HBSS and incubated at room temperature for 10 min, then 25 μL agonist buffer was dispensed into the well using a FlexStation III microplate reader (Molecular Devices), and intracellular calcium change was recorded at an excitation wavelength of 485 nm and an emission wavelength of 525 nm. EC50 and Emax values for each curve were calculated by Prism 8.0 software (GraphPad Software).

[2] = molecular target: T2, QRFPR mutants (Homo sapiens, UniProt Q96P65, H290A); conditions: HEK293, QRFPR H290^6.52A; HEK293, Fluo-4; mean ± S.E.M., n ≥ 3
T2 construct: expressed in transfected cells; host or cells: HEK293, transient transfection by electroporation
T2 sequence (Q96P65 whole entry H290A): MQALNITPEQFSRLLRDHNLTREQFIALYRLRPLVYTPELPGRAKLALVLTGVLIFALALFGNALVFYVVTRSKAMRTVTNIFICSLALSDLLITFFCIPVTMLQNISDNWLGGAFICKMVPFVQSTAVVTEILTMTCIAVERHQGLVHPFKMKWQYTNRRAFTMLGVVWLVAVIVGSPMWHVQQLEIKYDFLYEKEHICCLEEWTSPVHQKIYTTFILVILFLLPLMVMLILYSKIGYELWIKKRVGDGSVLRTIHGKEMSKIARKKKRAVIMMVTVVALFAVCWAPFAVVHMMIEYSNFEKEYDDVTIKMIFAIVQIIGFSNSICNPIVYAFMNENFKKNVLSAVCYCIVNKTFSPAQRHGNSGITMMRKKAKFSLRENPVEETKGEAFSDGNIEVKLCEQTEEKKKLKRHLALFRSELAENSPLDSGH
Procedure: as §1, §2, §3

[3] = molecular target: T3, QRFPR mutants (Homo sapiens, UniProt Q96P65, I199A); conditions: HEK293, QRFPR I199^ECL2A; HEK293, Fluo-4; mean ± S.E.M., n ≥ 3
T3 construct: expressed in transfected cells; host or cells: HEK293, transient transfection by electroporation
T3 sequence (Q96P65 whole entry I199A): as the sequence (Q96P65 whole entry H290A) above, with I199A, A290H counted along it
Procedure: as §1, §2, §3

[4] = molecular target: T4, QRFPR mutants (Homo sapiens, UniProt Q96P65, I218A); conditions: HEK293, QRFPR I218^5.42A; HEK293, Fluo-4; mean ± S.E.M., n ≥ 3
T4 construct: expressed in transfected cells; host or cells: HEK293, transient transfection by electroporation
T4 sequence (Q96P65 whole entry I218A): as the sequence (Q96P65 whole entry H290A) above, with I218A, A290H counted along it
Procedure: as §1, §2, §3

[5] = molecular target: T5, QRFPR mutants (Homo sapiens, UniProt Q96P65, L104A); conditions: HEK293, QRFPR L104^2.62A; HEK293, Fluo-4; mean ± S.E.M., n ≥ 3
T5 construct: expressed in transfected cells; host or cells: HEK293, transient transfection by electroporation
T5 sequence (Q96P65 whole entry L104A): as the sequence (Q96P65 whole entry H290A) above, with L104A, A290H counted along it
Procedure: as §1, §2, §3

[6] = molecular target: T6, QRFPR mutants (Homo sapiens, UniProt Q96P65, L193A)
T6 construct: expressed in transfected cells; host or cells: HEK293, transient transfection by electroporation
T6 sequence (Q96P65 whole entry L193A): as the sequence (Q96P65 whole entry H290A) above, with L193A, A290H counted along it
Procedure: as §1, §2, §3

[7] = molecular target: T7, QRFPR mutants (Homo sapiens, UniProt Q96P65, L202A); conditions: HEK293, QRFPR L202^45.51A; HEK293, Fluo-4; mean ± S.E.M., n ≥ 3
T7 construct: expressed in transfected cells; host or cells: HEK293, transient transfection by electroporation
T7 sequence (Q96P65 whole entry L202A): as the sequence (Q96P65 whole entry H290A) above, with L202A, A290H counted along it
Procedure: as §1, §2, §3

[8] = molecular target: T8, QRFPR mutants (Homo sapiens, UniProt Q96P65, P122A); conditions: HEK293, QRFPR P122^3.29A; HEK293, Fluo-4; mean ± S.E.M., n ≥ 3
T8 construct: expressed in transfected cells; host or cells: HEK293, transient transfection by electroporation
T8 sequence (Q96P65 whole entry P122A): as the sequence (Q96P65 whole entry H290A) above, with P122A, A290H counted along it
Procedure: as §1, §2, §3

[9] = molecular target: T9, QRFPR mutants (Homo sapiens, UniProt Q96P65, Q125A); conditions: HEK293, QRFPR Q125^3.32A; HEK293, Fluo-4; mean ± S.E.M., n ≥ 3
T9 construct: expressed in transfected cells; host or cells: HEK293, transient transfection by electroporation
T9 sequence (Q96P65 whole entry Q125A): as the sequence (Q96P65 whole entry H290A) above, with Q125A, A290H counted along it
Procedure: as §1, §2, §3

[10] = molecular target: T10, QRFPR mutants (Homo sapiens, UniProt Q96P65, Q184A); conditions: HEK293, QRFPR Q184^4.64A; HEK293, Fluo-4; mean ± S.E.M., n ≥ 3
T10 construct: expressed in transfected cells; host or cells: HEK293, transient transfection by electroporation
T10 sequence (Q96P65 whole entry Q184A): as the sequence (Q96P65 whole entry H290A) above, with Q184A, A290H counted along it
Procedure: as §1, §2, §3

[11] = molecular target: T11, QRFPR mutants (Homo sapiens, UniProt Q96P65, Q211A); conditions: HEK293, QRFPR Q211^5.35A; HEK293, Fluo-4; mean ± S.E.M., n ≥ 3
T11 construct: expressed in transfected cells; host or cells: HEK293, transient transfection by electroporation
T11 sequence (Q96P65 whole entry Q211A): as the sequence (Q96P65 whole entry H290A) above, with Q211A, A290H counted along it
Procedure: as §1, §2, §3

[12] = molecular target: T12, QRFPR mutants (Homo sapiens, UniProt Q96P65, T215A); conditions: HEK293, QRFPR T215^5.39A; HEK293, Fluo-4; mean ± S.E.M., n ≥ 3
T12 construct: expressed in transfected cells; host or cells: HEK293, transient transfection by electroporation
T12 sequence (Q96P65 whole entry T215A): as the sequence (Q96P65 whole entry H290A) above, with T215A, A290H counted along it
Procedure: as §1, §2, §3

[13] = molecular target: T13, QRFPR mutants (Homo sapiens, UniProt Q96P65, V101A); conditions: HEK293, QRFPR V101^2.59A; HEK293, Fluo-4; mean ± S.E.M., n ≥ 3
T13 construct: expressed in transfected cells; host or cells: HEK293, transient transfection by electroporation
T13 sequence (Q96P65 whole entry V101A): as the sequence (Q96P65 whole entry H290A) above, with V101A, A290H counted along it
Procedure: as §1, §2, §3

[14] = molecular target: T14, QRFPR mutants (Homo sapiens, UniProt Q96P65, V121A); conditions: HEK293, QRFPR V121^3.28A; HEK293, Fluo-4; mean ± S.E.M., n ≥ 3
T14 construct: expressed in transfected cells; host or cells: HEK293, transient transfection by electroporation
T14 sequence (Q96P65 whole entry V121A): as the sequence (Q96P65 whole entry H290A) above, with V121A, A290H counted along it
Procedure: as §1, §2, §3

[15] = molecular target: T15, QRFPR mutants (Homo sapiens, UniProt Q96P65, V129A); conditions: HEK293, QRFPR V129^3.36A; HEK293, Fluo-4; mean ± S.E.M., n ≥ 3
T15 construct: expressed in transfected cells; host or cells: HEK293, transient transfection by electroporation
T15 sequence (Q96P65 whole entry V129A): as the sequence (Q96P65 whole entry H290A) above, with V129A, A290H counted along it
Procedure: as §1, §2, §3

[16] = molecular target: T16, QRFPR mutants (Homo sapiens, UniProt Q96P65, Y190A); conditions: HEK293, QRFPR Y190^ECL2A; HEK293, Fluo-4; mean ± S.E.M., n ≥ 3
T16 construct: expressed in transfected cells; host or cells: HEK293, transient transfection by electroporation
T16 sequence (Q96P65 whole entry Y190A): as the sequence (Q96P65 whole entry H290A) above, with Y190A, A290H counted along it
Procedure: as §1, §2, §3

T1 sequence (Q96P65 19-431, stated change not applied): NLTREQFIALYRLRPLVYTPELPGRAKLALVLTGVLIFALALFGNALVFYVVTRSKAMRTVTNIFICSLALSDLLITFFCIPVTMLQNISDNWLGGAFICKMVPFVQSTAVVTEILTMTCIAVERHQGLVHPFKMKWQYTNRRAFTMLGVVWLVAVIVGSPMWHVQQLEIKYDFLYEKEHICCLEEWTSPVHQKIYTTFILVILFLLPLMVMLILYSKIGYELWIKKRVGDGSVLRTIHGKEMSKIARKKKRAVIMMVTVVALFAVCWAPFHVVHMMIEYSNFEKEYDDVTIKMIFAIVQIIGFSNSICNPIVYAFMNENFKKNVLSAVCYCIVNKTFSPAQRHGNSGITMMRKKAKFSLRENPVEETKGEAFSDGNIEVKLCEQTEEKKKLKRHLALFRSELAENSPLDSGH

For ASGPLGTLAEELSSYSRRKGGFSFRF-NH2 [26RFa], which Emax [1] is on record?
The Emax was 53.2 ± 0.75%.

And the Emax [2]?
Its Emax is 60.4 ± 0.39%.

What about the Emax [3] of the same substance?
The Emax was 89.7 ± 2.3%.

What about the Emax [4] of the same substance?
The Emax was 77.8 ± 0.31%.

And the Emax [5]?
The Emax was 109 ± 0.69%.

What about the Emax ([6]; HEK293, QRFPR L193^ECL2A, HEK293, Fluo-4, mean ± S.E.M., n ≥ 3) of the same substance?
The Emax was 66.8 ± 0.54%.

And the “effect of mutation on peptide activity” value ([6]; QRFPR L193A)?
Its value is “remarkable decline in peptide activity”.

What about the Emax [7] of the same substance?
Its Emax is 101 ± 2.3%.

What about the Emax [8] of the same substance?
The Emax was 96.7 ± 1.4%.

And the Emax [9]?
The Emax was 14.1 ± 1.8%.

What about the Emax [10] of the same substance?
Its Emax is 71.4 ± 2.2%.

And the Emax [11]?
Its Emax is 94.9 ± 1.6%.

And the Emax [12]?
Its Emax is 85.8 ± 3.4%.

And the Emax [13]?
Its Emax is 102 ± 1.7%.

What about the Emax [14] of the same substance?
The Emax was 106 ± 5.4%.

And the Emax [15]?
The Emax was 42.7 ± 0.71%.

What about the Emax [16] of the same substance?
Its Emax is 23.6 ± 0.22%.

Source: article PMC11148045, “Structural basis for recognition of 26RFa by the pyroglutamylated RFamide peptide receptor” (Cell Discovery, 2024)
